According to US11198869B2, “Angelman syndrome antisense treatment” (The Texas A&M University System, priority 2017, dated 2021):

Legend:
SNORD115 snoRNAs = assay: RNA-sequencing of Angelman syndrome iPSC neurons: SNORD115 snoRNAs; format: cell-based, human; details: 30 μM; six days post-treatment; RNA-seq
Experimental: (§1) RNA was isolated using Qiagen RNAeasy Plus (74136, Qiagen, Hilden, Germany). RNA concentration was determined using Qubit Fluorometric Quantitation (Thermo Fisher Scientific) and RNA quality was assessed using a 4200 Agilent TapeStation (Agilent, Santa Clara, Calif.). RNA-sequencing libraries were generated using the Illumina TruSeq Stranded Total RNA kit (20020597, Illumina, Inc., San Diego, Calif.) according to the manufacturer's protocol. 75 base-pair paired-end sequencing was performed using a NextSeq 500 (IIlumina, San Diego, Calif.) at the Texas A&M Institute for Genome Sciences and Society Genomics core. Raw sequencing reads were processed using CASAVA. The resulting FASTQ sequences were examined using FASTQC. […]
(§2) To determine whether ASO-4.4.PS.L and ASO-6.1.PO-1.O affect the levels of RNA transcripts encoded by the PWS polycistronic transcript, RNA-sequencing was performed on AS iPS cells treated with each ASO and the steady state RNA levels of SNURF, SNRPN, the SNORD116 host-gene transcript (SNHG116), the SNORD116 snoRNAs, IPW, the SNORD115 host-gene transcript (SNHG115), the SNORD115 snoRNAs, and UBE3A-AS were quantified. UBE3A steady state RNA levels were also measured. […]

SNRPN = assay: RNA-sequencing of Angelman syndrome iPSC neurons: SNRPN; format: cell-based, human; details: 30 μM; six days post-treatment; RNA-seq
Experimental: as §1, §2

SNURF = assay: RNA-sequencing of Angelman syndrome iPSC neurons: SNURF; format: cell-based, human; details: 30 μM; six days post-treatment; RNA-seq
Experimental: as §1, §2

IPW = assay: RNA-sequencing of Angelman syndrome iPSC neurons: IPW; format: cell-based, human; details: 30 μM, RNA-seq; for Difference, IPW RNA level relative to vehicle: six days post-treatment
Experimental: RNA was isolated using Qiagen RNAeasy Plus (74136, Qiagen, Hilden, Germany). RNA concentration was determined using Qubit Fluorometric Quantitation (Thermo Fisher Scientific) and RNA quality was assessed using a 4200 Agilent TapeStation (Agilent, Santa Clara, Calif.). RNA-sequencing libraries were generated using the Illumina TruSeq Stranded Total RNA kit (20020597, Illumina, Inc., San Diego, Calif.) according to the manufacturer's protocol. 75 base-pair paired-end sequencing was performed using a NextSeq 500 (IIlumina, San Diego, Calif.) at the Texas A&M Institute for Genome Sciences and Society Genomics core. Raw sequencing reads were processed using CASAVA. The resulting FASTQ sequences were examined using FASTQC.
Angelman syndrome induced pluripotent stem cells derived neurons Angelman syndrome iPS cells (AG1-0 iPSCs) (ECN001, Kerafast, Boston, Mass.) were co-cultured on irradiated murine embryonic fibroblasts in human embryonic stem cell medium [DMEM/F12 (11330-057, Gibco Biosciences, Dublin, Ireland), 20% Knockout Serum Replacement (10828-028, Thermo Fisher Scientific), 1× Non-essential amino acids, 2 mM L-glutamine, […] 2-Mercaptoethanol, and 4 μg/mL basic Fibroblast Growth Factor]. […]
as §2
Normalized FPKM (fragments per […] per million) values of the RefSeq gene annotation will be estimated using Cuffnorm with the default settings and the following option: −u. The FPKM values of each gene annotation was determined for each sample from the output file and used for descriptive and inferential statistics.

UBE3A = assay: RNA-sequencing of Angelman syndrome iPSC neurons: UBE3A; format: cell-based, human; details: 30 μM; six days post-treatment; RNA-seq
Experimental: as §1, §2

UBE3A-AS = assay: RNA-sequencing of Angelman syndrome iPSC neurons: UBE3A-AS; format: cell-based, human; details: 30 μM; RNA-seq; relative to vehicle
Experimental: as §1, §2

SNORD115 = SNORD115 steady state RNA (qRT-PCR) in GABAergic iPSC-derived neurons; details: 10-point dose curve 1 nM-30 μM; 14 DIV to 20 DIV
SNORD109A/B = SNORD109A/B steady state RNA (qRT-PCR) in GABAergic iPSC-derived neurons; details: 10-point dose curve 1 nM-30 μM; 14 DIV to 20 DIV

Compound | Difference, SNORD115 RNA level relative to vehicle (SNORD115 snoRNAs) | Difference, SNRPN RNA level relative to vehicle (SNRPN) | Difference, SNURF RNA level relative to vehicle (SNURF) | reduction of IPW levels (IPW; effect not significant) [fold] | Difference, IPW RNA level relative to vehicle (IPW) | Difference, UBE3A RNA level relative to vehicle (UBE3A) | effect on UBE3A-AS RNA levels (UBE3A-AS) [fold change] | effect on SNORD115 RNA levels (in words) (SNORD115) | effect on SNORD109A/B RNA levels (in words) (SNORD109A/B)
A^L*G^L*A^L*a*t*g*g*c*a*c*a*t*c*t*5mC^L*T^L*T^L*G^L (NNNATGGCACATCTNNNN; LNA gapmer, PS, 5-methylcytosine, chemistry not fully specified) [ASO-4.4.PS.L] | −0.26 | −0.02 | 0.49 | 1.5 | −0.49 | 0.90 | −6.1 |  | 
C^O*U^O*G^O*G^O-t*g*t*c*a*a*c*a*a*g-C^O*C^O*A^O*A^o [ASO-6.1.PO-1.O] | 0.24 | 0.03 | −0.53 |  | 0.18 | 0.74 | −2.8 |  | 
CC[C@@]1(O)C(=O)OCc2c1cc1n(c2=O)Cc2cc3c(CN(C)C)c(O)ccc3nc2-1 [Topotecan, reference compound] |  |  |  |  |  |  |  | significant effect on SNORD116, IPW, SNORD115, and SNORD109A/B RNA levels that was dose dependent | significant effect on SNORD116, IPW, SNORD115, and SNORD109A/B RNA levels that was dose dependent
U^O*A^O*G^O*A^O*A^O*t*g*g*c*a*c*a*t*c*t*C^O*U^O*U^O*G^O*G^O [ASO-4] |  |  |  |  |  |  |  | significant effect on the RNA levels of IPW, SNORD115, and SNORD109A/B but not in a dose dependent manner | significant effect on the RNA levels of IPW, SNORD115, and SNORD109A/B but not in a dose dependent manner
